Laboratory results taken from patent US9527838B2, “2-pyridinecarboxamide derivatives, compositions containing such compounds, and methods of treatment” (priority 2012, dated 2016).
Like-named read-outs stand apart in the source and are kept apart here.

Target: Recombinant human liver glucokinase (Homo sapiens (Human), UniProt P35557)
Experiment: Glucokinase activation assay (G6PDH-coupled, Thio-NADH absorbance at 405 nm)
Format: biochemical
Conditions: for EC50: 30° C.
Text: The glucokinase activity can, for instance, be determined without directly measuring glucose-6-phosphate by measuring the amount of Thio-NADH generated during the production of phosphogluconolactone from glucose-6-phosphate by a reporter enzyme glucose-6-phosphate dehydrogenase.
To test the exemplified compounds, the following assay was employed. Recombinant human liver glucokinase was expressed as a FLAG fusion protein in E. coli, and purified on […] M2 AFFINITY GEL (Sigma). The assay was carried out at 30° C. in a 96-well plate. In the plate was distributed 69 μl each of assay buffer (25 mM Hepes Buffer: pH=7.2, 2 mM MgCl2, 1 mM ATP, 0.5 mM TNAD, 1 mM dithiothreitol), to which was added 1 μl of a DMSO solution of the compound or DMSO as control. Then, 20 μl of pre-ice-cooled enzyme mixture (FLAG-GK, 20 U/ml G6PDH) was distributed thereto, to which was added 10 μl of 25 mM glucose as substrate to initiate the reaction (final glucose concentration=2.5 mM). After starting the reaction, the absorbance at 405 nm was measured every 30 seconds for 10 minutes to evaluate the compound based on the initial increase for 5 minutes. FLAG-GK was added so that the increase of absorbance after 5 minutes fell between 0.05 to 0.1 in the presence of 1% DMSO.
The OD values of the respective compounds were measured in the respective concentrations, wherein the OD value of DMSO as control is regarded as 100%.

Chain of Recombinant human liver glucokinase (P35557 other isoform, or with tags, fused parts or gaps): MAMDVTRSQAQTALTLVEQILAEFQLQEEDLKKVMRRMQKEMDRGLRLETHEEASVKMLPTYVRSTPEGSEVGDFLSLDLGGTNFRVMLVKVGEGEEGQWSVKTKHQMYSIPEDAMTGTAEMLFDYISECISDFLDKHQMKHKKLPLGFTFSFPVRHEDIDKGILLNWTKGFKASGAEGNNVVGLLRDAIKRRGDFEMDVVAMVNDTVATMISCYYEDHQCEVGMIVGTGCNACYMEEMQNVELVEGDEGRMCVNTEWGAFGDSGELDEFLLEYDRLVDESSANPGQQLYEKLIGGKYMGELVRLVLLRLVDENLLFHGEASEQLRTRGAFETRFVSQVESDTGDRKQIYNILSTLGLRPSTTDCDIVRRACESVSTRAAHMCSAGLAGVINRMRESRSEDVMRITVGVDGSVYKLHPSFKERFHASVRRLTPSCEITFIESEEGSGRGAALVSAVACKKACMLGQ

CCOC(=O)CSc1cnc(NC(=O)c2nc(Sc3nncn3C)ccc2Sc2ccc(Cl)c(Cl)c2)s1 [Example 51, Ethyl ({2-[({3-[(3,4-dichlorophenyl)sulfanyl]-6-[(4-methyl-4H-1,2,4-triazol-3-yl)sulfanyl]pyridin-2-yl}carbonyl)amino]-1,3-thiazol-5-yl}sulfanyl)acetate]
Emax: 479% | EC50 (2.5 mM Glu): 0.0062 µM

O=C(O)CSc1cnc(NC(=O)c2nc(Sc3ccc(F)cc3)ccc2Sc2ccc(F)cc2)s1 [Example 28, ({2-[({3,6-Bis[(4-fluorophenyl)sulfanyl]pyridin-2-yl}carbonyl)amino]-1,3-thiazol-5-yl}sulfanyl)acetic acid]
Emax: 343% | EC50 (2.5 mM Glu): 0.172 µM

O=C(O)Cc1nc(NC(=O)c2nc(Sc3ccccn3)ccc2Sc2ccc(F)cc2)sc1Cl [Example 32, {5-Chloro-2-[({3-[(4-fluorophenyl)sulfanyl]-6-(pyridin-2-ylsulfanyl)pyridin-2-yl}carbonyl)amino]-1,3-thiazol-4-yl}acetic acid]
Emax: 643% | EC50 (2.5 mM Glu): 0.0161 µM

Cn1cnnc1Sc1ccc(Sc2ccc(Cl)c(Cl)c2)c(C(=O)Nc2nc(CC(=O)O)c(Cl)s2)n1 [Example 54, {5-Chloro-2-[({3-[(3,4-dichlorophenyl)sulfanyl]-6-[(4-methyl-4H-1,2,4-triazol-3-yl)sulfanyl]pyridin-2-yl}carbonyl)amino]-1,3-thiazol-4-yl}acetic acid]
Emax: 523% | EC50 (2.5 mM Glu): 0.0233 µM

O=C(O)Cc1csc(NC(=O)c2nc(Sc3ccccn3)ccc2Sc2ccc(F)cc2)n1 [Example 34, {2-[({3-[(4-Fluorophenyl)sulfanyl]-6-(pyridin-2-ylsulfanyl)pyridin-2-yl}carbonyl)amino]-1,3-thiazol-4-yl}acetic acid]
Emax: 762% | EC50 (2.5 mM Glu): 0.413 µM

CCOC(=O)CSc1cnc(NC(=O)c2nc(Sc3nncn3C)ccc2Sc2ccc(OC)cc2)s1 [Example 1, Ethyl ({2-[({3-[(4-methoxyphenyl)sulfanyl]-6-[(4-methyl-4H-1,2,4-triazol-3-yl)sulfanyl]pyridin-2-yl}carbonyl)amino]-1,3-thiazol-5-yl}sulfanyl)acetate]
Emax: 471% | EC50 (2.5 mM Glu): 0.0075 µM

COC(=O)CCc1cnc(NC(=O)c2nc(Sc3nncn3C)ccc2Sc2ccc(OC)cc2)s1 [Example 7, Methyl 3-{2-[({3-[(4-methoxyphenyl)sulfanyl]-6-[(4-methyl-4H-1,2,4-triazol-3-yl)sulfanyl]pyridin-2-yl}carbonyl)amino]-1,3-thiazol-5-yl}propanoate]
Emax: 550% | EC50 (2.5 mM Glu): 0.0234 µM

COc1ccc(Sc2ccc(Sc3ccccn3)nc2C(=O)Nc2nc(CC(=O)O)c(Cl)s2)cc1 [Example 13, {5-Chloro-2-[({3-[(4-methoxyphenyl)sulfanyl]-6-(pyridin-2-ylsulfanyl)pyridin-2-yl}carbonyl)amino]-1,3-thiazol-4-yl}acetic acid]
Emax: 584% | EC50 (2.5 mM Glu): 0.009 µM

CCOC(=O)CSc1cnc(NC(=O)c2nc(Sc3ccccn3)ccc2Sc2ccc(F)cc2)s1 [Example 35, Ethyl ({2-[({3-[(4-fluorophenyl)sulfanyl]-6-(pyridin-2-ylsulfanyl)pyridin-2-yl}carbonyl)amino]-1,3-thiazol-5-yl}sulfanyl)acetate]
Emax: 504% | EC50 (2.5 mM Glu): 0.0838 µM

CCOC(=O)C(C)(C)CSc1cnc(NC(=O)c2nc(Sc3ccccn3)ccc2Sc2ccc(F)cc2)s1 [Example 37, Ethyl 3-({2-[({3-[(4-fluorophenyl)sulfanyl]-6-(pyridin-2-ylsulfanyl)pyridin-2-yl}carbonyl)amino]-1,3-thiazol-5-yl}sulfanyl)-2,2-dimethylpropanoate]
Emax: 450% | EC50 (2.5 mM Glu): 0.129 µM

COc1ccc(Sc2ccc(Sc3ccccn3)nc2C(=O)Nc2ncc(SCC(=O)O)s2)cc1 [Example 11, ({2-[({3-[(4-Methoxyphenyl)sulfanyl]-6-(pyridin-2-ylsulfanyl)pyridin-2-yl}carbonyl)amino]-1,3-thiazol-5-yl}sulfanyl)acetic acid]
Emax: 509% | EC50 (2.5 mM Glu): 0.0109 µM

CCOC(=O)C(C)(C)CSc1cnc(NC(=O)c2nc(Sc3nncn3C)ccc2Sc2ccc(F)cc2)s1 [Example 20]
Emax: 460%

CCOP(=O)(Cc1cnc(NC(=O)c2nc(Sc3nncn3C)ccc2Sc2ccc(C(F)(F)F)cc2)s1)OCC [Example 45, Diethyl [(2-{[(6-[(4-methyl-4H-1,2,4-triazol-3-yl)sulfanyl]-3-{[4-(trifluoromethyl)phenyl]sulfanyl}pyridin-2-yl)carbonyl]amino}-1,3-thiazol-5-yl)methyl]phosphonate]
Emax: 273% | EC50 (2.5 mM Glu): 0.35 µM

CCOC(=O)CSc1cnc(NC(=O)c2nc(Sc3ccccn3)ccc2Sc2ccc(OC)cc2)s1 [Example 10, Ethyl ({2-[({3-[(4-methoxyphenyl)sulfanyl]-6-(pyridin-2-ylsulfanyl)pyridin-2-yl}carbonyl)amino]-1,3-thiazol-5-yl}sulfanyl)acetate]
EC50 (2.5 mM Glu): 0.0352 µM | Emax (2.5 mM Glu, OD value of DMSO as control regarded as 100%, read-out: Emax): 498%

Cn1cnnc1Sc1ccc(Sc2ccc(C(F)(F)F)cc2)c(C(=O)Nc2nc(CC(=O)O)cs2)n1 [Example 47, (2-{[(6-[(4-Methyl-4H-1,2,4-triazol-3-yl)sulfanyl]-3-{[4-(trifluoromethyl)phenyl]sulfanyl}pyridin-2-yl)carbonyl]amino}-1,3-thiazol-4-yl)acetic acid]
Emax: 633% | EC50 (2.5 mM Glu): 0.222 µM

CCOC(=O)Cc1nc(NC(=O)c2nc(Sc3nncn3C)ccc2Sc2ccc(F)cc2)sc1Cl [Example 24, Ethyl {5-chloro-2-[({3-[(4-fluorophenyl)sulfanyl]-6-[(4-methyl-4H-1,2,4-triazol-3-yl)sulfanyl]pyridin-2-yl}carbonyl)amino]-1,3-thiazol-4-yl}acetate]
Emax: 378% | EC50 (2.5 mM Glu): 0.008 µM

CCOP(=O)(Cc1cnc(NC(=O)c2nc(Sc3nncn3C)ccc2Sc2ccc(F)cc2)s1)OCC [Example 26, Diethyl ({2-[({3-[(4-fluorophenyl)sulfanyl]-6-[(4-methyl-4H-1,2,4-triazol-3-yl)sulfanyl]pyridin-2-yl}carbonyl)amino]-1,3-thiazol-5-yl}methyl)phosphonate]
Emax: 377% | EC50 (2.5 mM Glu): 0.136 µM

Cn1cnnc1Sc1ccc(Sc2ccc(F)cc2)c(C(=O)Nc2ncc(SCC(=O)O)s2)n1 [Example 19, ({2-[({3-[(4-Fluorophenyl)sulfanyl]-6-[(4-methyl-4H-1,2,4-triazol-3-yl)sulfanyl]pyridin-2-yl}carbonyl)amino]-1,3-thiazol-5-yl}sulfanyl)acetic acid]
Emax: 426% | EC50 (2.5 mM Glu): 0.0231 µM

COc1ccc(Sc2ccc(Sc3nncn3C)nc2C(=O)Nc2ncc(SC(C)(C)C(=O)O)s2)cc1 [Example 4, 2-({2-[({3-[(4-methoxyphenyl)sulfanyl]-6-[(4-methyl-4H-1,2,4-triazol-3-yl)sulfanyl]pyridin-2-yl}carbonyl)amino]-1,3-thiazol-5-yl}sulfanyl)-2-methylpropanoic acid]
Emax: 417% | EC50 (2.5 mM Glu): 0.0651 µM

CCOC(=O)Cc1nc(NC(=O)c2nc(Sc3ccc(F)cc3)ccc2Sc2ccc(F)cc2)sc1Cl [Example 29, Ethyl {2-[({3,6-bis[(4-fluorophenyl)sulfanyl]pyridin-2-yl}carbonyl)amino]-5-chloro-1,3-thiazol-4-yl}acetate]
Emax: 158%

CCOP(=O)(Cc1cnc(NC(=O)c2nc(Sc3nncn3C)ccc2Sc2ccc(Cl)c(Cl)c2)s1)OCC [Example 50]
Emax: 379% | EC50 (2.5 mM Glu): 0.0571 µM
